According to PubChem BioAssay AID248 (DTP/NCI, 2004):
“And” between values parts separate entries of the source, which are not always exact repeats. Equal entries are not always repeated. Toxic doses and inconclusive results are not listed.

Test system: L1210 leukemia ip in BDF1 mice, survival T/C
Test: NCI In Vivo Anticancer Drug Screen. Data for tumor model L1210 Leukemia (intraperitoneal) in B6D2F1 (BDF1) mice
Conditions: endpoint: mean survival time, higher = longer survival
In short: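 Tumor was transplanted into mice, which were then dosed with test compound or vehicle alone. Survival was recorded for each group, and the treated figure was expressed relative to the control figure.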

[1] = dose: 100.0 mg/kg/injection, schedule: Q01DX009 (ip), vehicle: saline with Tween-80
[2] = dose: 200.0 mg/kg/injection, schedule: Q01DX009 (ip), vehicle: saline with Tween-80
[3] = dose: 100.0 mg/kg/injection, schedule: Q04DX003 (ip), vehicle: Klucel (hydroxypropylcellulose) (HPC)

## CC1(C)COC(C2CC(=O)c3ccccc3C2)=N1 (centres undefined)
dose: 50.0 mg/kg/injection, schedule: Q01DX009 (ip), vehicle: saline with Tween-80
  T/C: 94 % of control
dose: 50.0 mg/kg/injection, schedule: Q04DX003 (ip), vehicle: saline
  T/C: 97 % of control
[1]
  T/C: 107 % of control
dose: 100.0 mg/kg/injection, schedule: Q04DX003 (ip), vehicle: saline
  T/C: 92 % of control
[2]
  T/C: 100 % of control
dose: 200.0 mg/kg/injection, schedule: Q04DX003 (ip), vehicle: saline
  T/C: 99 % of control
dose: 400.0 mg/kg/injection, schedule: Q01DX009 (ip), vehicle: saline with Tween-80
  T/C: 107 % of control
dose: 400.0 mg/kg/injection, schedule: Q04DX003 (ip), vehicle: saline
  T/C: 91 % of control

## CC1C(=O)c2cc3c(cc2CCN(C)Cc2c1ccc1c2OCO1)OCO3 (centres undefined)
dose: 5.0 mg/kg/injection, schedule: Q01DX001 (ip), vehicle: saline
  T/C: 103 % of control
dose: 9.5 mg/kg/injection, schedule: Q01DX001 (ip), vehicle: other
  T/C: 93 % of control
dose: 10.0 mg/kg/injection, schedule: Q01DX001 (ip), vehicle: saline
  T/C: 103 % of control
dose: 19.0 mg/kg/injection, schedule: Q01DX001 (ip), vehicle: other
  T/C: 104 % of control
dose: 20.0 mg/kg/injection, schedule: Q01DX001 (ip), vehicle: saline
  T/C: 101 % of control
dose: 40.0 mg/kg/injection, schedule: Q01DX001 (ip), vehicle: saline
  T/C: 101 % of control

## COc1cc(Cc2nccc3cc(OC)c(OC)cc23)c(C(C)=O)c(OC)c1
dose: 5.0 mg/kg/injection, schedule: Q01DX009 (ip), vehicle: saline
  T/C: 113 % of control
dose: 10.0 mg/kg/injection, schedule: Q01DX009 (ip), vehicle: saline
  T/C: 118 % of control
dose: 20.0 mg/kg/injection, schedule: Q01DX009 (ip), vehicle: saline
  T/C: 109 % of control
dose: 40.0 mg/kg/injection, schedule: Q01DX009 (ip), vehicle: saline
  T/C: 99 % of control
dose: 80.0 mg/kg/injection, schedule: Q01DX009 (ip), vehicle: saline
  T/C: 95 % of control

## C=CC(=O)Nc1ccc(Cl)cc1
dose: 25.0 mg/kg/injection, schedule: Q04DX003 (ip), vehicle: Klucel (hydroxypropylcellulose) (HPC)
  T/C: 98 % of control
dose: 50.0 mg/kg/injection, schedule: Q04DX003 (ip), vehicle: Klucel (hydroxypropylcellulose) (HPC)
  T/C: 96 % of control
[3]
  T/C: 107 % of control and 90 % of control

## CCSc1nc(N)c(C#N)cc1C#N
dose: 100.0 mg/kg/injection, schedule: Q01DX009 (ip), vehicle: Klucel (hydroxypropylcellulose) (HPC)
  T/C: 105 % of control
[3]
  T/C: 88 % of control
dose: 200.0 mg/kg/injection, schedule: Q01DX009 (ip), vehicle: Klucel (hydroxypropylcellulose) (HPC)
  T/C: 95 % of control
dose: 200.0 mg/kg/injection, schedule: Q04DX003 (ip), vehicle: Klucel (hydroxypropylcellulose) (HPC)
  T/C: 95 % of control

## CCN(CC)CCN1C(=O)c2cccc3cccc(c23)C1=O
dose: 10.5 mg/kg/injection, schedule: Q03HX024 (ip), vehicle: saline
  T/C: 102 % of control
dose: 15.7 mg/kg/injection, schedule: Q03HX024 (ip), vehicle: saline
  T/C: 98 % of control
dose: 23.4 mg/kg/injection, schedule: Q03HX024 (ip), vehicle: saline
  T/C: 99 % of control
dose: 34.8 mg/kg/injection, schedule: Q03HX024 (ip), vehicle: saline
  T/C: 111 % of control
dose: 52.0 mg/kg/injection, schedule: Q03HX024 (ip), vehicle: saline
  T/C: 165 % of control
dose: 96.0 mg/kg/injection, schedule: Q01DX009 (ip), vehicle: saline
  T/C: 111 % of control
dose: 96.0 mg/kg/injection, schedule: Q03HX024 (ip), vehicle: saline
  T/C: 96 % of control
dose: 105.0 mg/kg/injection, schedule: Q01DX001 (ip), vehicle: saline
  T/C: 103 % of control
dose: 105.0 mg/kg/injection, schedule: Q04DX003 (ip), vehicle: saline
  T/C: 100 % of control
dose: 157.0 mg/kg/injection, schedule: Q01DX001 (ip), vehicle: saline
  T/C: 100 % of control
dose: 157.0 mg/kg/injection, schedule: Q04DX003 (ip), vehicle: saline
  T/C: 110 % of control

## CC(=O)NCCCCC(=O)c1ccccc1
[1]
  T/C: 102 % of control
[2]
  T/C: 100 % of control
